Experimental data as given in US20030199516A1, “Methods of treating infection by drug resistant bacteria” (Genesoft, Inc., priority 2001, published 2003).

Legend:
[1] = tested on: methicillin resistant Staphylococcus aureus ATCC 33591; assay: Mouse protection assay; format: in vivo; conditions: balb/c mice, 50 mg/kg intravenously at 2, 8, 18 and 24 hours post infection; vehicle 14
Description: (§1) A S. aureus ATCC 33591 culture was grown to log phase overnight and diluted in phosphate buffered saline (pH 7.2) to an optical density of about 0.1 at 600 nm, giving an approximate concentration of 10^8 cfu/mL. Porcine mucin was added to the suspension to a final concentration of 5% mucin. The suspension was diluted 1:100 for a final concentration of 10^6 cfu/mL.
Female balb/c mice (20 g body weight) were injected intraperitoneally with 0.5 mL of bactenal suspension (10^6 cfu/mL). Vehicle (phosphate buffered saline, pH 7.2) or test compound were administered intravenously at 2, 8, 18, and 24 hours post infection. The animals were monitored twice daily and survival counts were recorded up to 48 hours post infection.

[2] = tested on: Candida albicans ATCC 38247; assay: Antifungal MIC; format: cell-based; conditions: Col. F = C. albicans ATCC 38247
From the text: (§2) In vitro antibacterial activity data were collected for the following Gram-positive bacteria: Staphylococcus aureus (ATCC 27660, ATCC 33591 and ATCC 43300, all methicillin resistant strains (MRSA's)); Streptococcus pneumoniae (ATCC 51422, a penicillin resistant strain (PRSP)), Enterococcus faecium (ATCC 51559, and/or a vancomycin resistant strain (VRE)). Additionally, antifungal activity data were collected for Candida albicans (ATCC 38247). Minimal inhibition concentrations (MIC's) were determined using the National Committee for Clinical Laboratory Standards (NCCLS) broth microdilution assay in microtiter plates, as set forth in: (1) the guidelines of the National Committee for Clinical Laboratory Standards (NCCLS) Document M7-A4 (NCCLS, 1997); (2) the guidelines of the National Committee for Clinical Laboratory Standards (NCCLS) Document M11-A4 (NCCLS, 1997); and (3) the guidelines and reference method of the National Committee for Clinical Laboratory Standards (NCCLS) Document M27-T (NCCLS, 1995). For antifungal essays, the method recommended in Murray, PR., 1995 Manual of Clinical Microbiology (ASM Press, Washington, D.C.), was employed.

[3] = target: target sequence AATTAATCAT (352 bp fragment, Plasmid C); assay: Quantitative DNase I footprint titration; format: binding; conditions: 352 bp C, 22° C., pH 7.0, read-out: Dissociation Constant Kd
From the text: (§3) Compounds (1) through (20) according to this invention were screened for their ability to bind to specified DNA target sequences, using DNase I footprinting. Generally, the procedure described in Dervan, WO 98/50582 (1998), was followed.
(§4) Three double stranded circular plasmids A, B, and C were used to prepare double stranded DNA-binding probes containing the target sequences for the DNase I footprint titration experiments. Plasmids A, B, and C had nucleotide sequences given by SEQ ID NO. I, SEQ ID NO. II, and SEQ ID NO. III, respectively.
(§5) The 3′-P32 end-labeled EcoRI/PvuII fragments from each plasmid were prepared by digesting the plasmids with EcoRI and PvuII with simultaneous fill-in using Sequenase v. 2.0, [alpha-P32]-deoxyadenosine-5′-triphosphate, and [alpha-P32]-thymidine-5′-triphosphate, and isolating the cloned fragments by nondenaturing gel electrophoresis. A and G sequencing reactions were carried out as described (See Maxam and Gilbert, Methods Enzymol., 1980, 65, 499-560; Iverson and Dervan, Methods Enzymol., 1987, 15, 7823-7830; Sambrook et al., 1989, Molecular Cloning, 2nd ed., Cold Spring Harbor Laboratory Press: Cold Spring Harbor, N.Y.) Standard methods were used for all DNA manipulations (Sambrook et al., ibid.) The cut sites for EcoRI and PvuII are indicated by bars in the respective maps of Plasmids A, B, and C in FIGS. 5, 6, and 7.
(§6) The 351 base pair dsDNA restriction fragment (SEQ ID NO. IV) of Plasmid A contained the target sequences AAAAAGCAAAAA, AAAAAGACAAAAA, and AAAAAGTACAAAAA. The 310 base pair dsDNA restriction fragment (SEQ ID NO. V) of Plasmid B contained the target sequences AGTACT, AATACT, and ATTACT. The 352 base pair dsDNA restriction fragment (SEQ ID NO. VI) of Plasmid C contained the target sequences TGACAATTAAT, GACAATTAATCA, AATTAATCAT, ACAATTA, and ACAATTAAT. These fragments were used for quantitative DNase I footprinting experiments. Compounds used in the method of this invention bind to at least one of the target sites with a equal to or less than 100 nM, preferably equal to or less than 50 nM, and more preferably equal to or less than 20 nM. The target sequences were selected for the identity with, or similarity to, promoter sites for bacterial genes.
(§7) Quantitative DNase I footprint titration experiments were carried out as described previously (Dervan, WO 98/50582, 1998) with the following changes. All reactions were carried out in a total volume of 400 μL, with compound stock solution or water added to 15,000 cpm radiolabeled restriction fragment affording final solution conditions of 10 mM Tris HCl, 10 mM KCl, 10 mM MgCl2, 5 mM CaCl2, pH 7.0 and 0.01 nM, 0.1 nM, 1.0 nM, 10.0 nM compound or no compound for reference lanes. The compounds were allowed to equilbrate at 22° C. for 16 h. Footprinting reactions were initiated with addition of 10 μL of a DNase I stock solution (at the appropriate concentration to give ˜50% intact DNA) containing 1 mM DTT and allowed to proceed for 7 min at 22° C. The reactions were stopped, ethanol precipitated, resuspended in loading buffer, heat denatured, and placed on ice as described previously (Dervan WO 98/50582, 1998). The reaction products were separated on a precast 8% polyacrylamide denaturing sequencing Castaway gel with 32 preformed wells from Stratagene in 1×TBE at 2000 V. Gels were dried according to the manufacturer and exposed to a storage phosphor screen (Molecular Dynamics). Quantitation and data analysis were carried out as described in Dervan, WO 98/50582, 1998.

[4] = tested on: Enterococcus faecium ATCC 51559; assay: NCCLS broth microdilution MIC; format: cell-based; conditions: Col. D = E. faecium ATCC 51559 (VRE)
From the text: as §2

[5] = tested on: S. aureus ATCC 33591; assay: NCCLS broth microdilution MIC; format: cell-based, Staphylococcus aureus; conditions: Col. B = S. aureus ATCC 33591 (MRSA)
From the text: as §2

[6] = tested on: S. aureus ATCC 43300; assay: NCCLS broth microdilution MIC; format: cell-based, Staphylococcus aureus; conditions: Col. C = S. aureus ATCC 43300 (MRSA)
From the text: as §2

[7] = tested on: methicillin resistant Staphylococcus aureus ATCC 33591; assay: Murine neutropenic thigh model; format: in vivo; conditions: neutropenic CF1 mice, 80 mg/kg intravenously 2 h post infection, 6 hr after treatment, vehicle 7.83
Description: as §1, with “cfu/mL.” for “cfu/mL. Porcine mucin was added to the suspension to a final concentration of 5% mucin.”, “1:100 in phosphate buffered saline (pH 7.2)” for “1:100”
Outbred female CFI mice (approx. 20 gram body weight) were rendered netutropenic by treatment with cyclophosphamide (200 mg/kg body weight, intraperitoneal injection) at 2 and 4 days prior to inoculation. Groups of 5 mice were inoculated with 0.05 mL of the bacteria (approx. 10^6 cfu/mL) into the anterior thigh. Each group was treated intravenously two hours post infection with vehicle (phosphate buffered saline) or test compound. The mice were sacrificed at either 6 or 24 hrs after treatment and thighs were collected aseptically. Each thigh was weighed, placed into sterile saline, and homogenized. The tissue homogenates were diluted appropriately for plating on agar plates. Colony counts were recorded (cfu/gram) and compared to control groups.

[8] = target: target sequence GACAATTAATCA (352 bp fragment, Plasmid C); assay: Quantitative DNase I footprint titration; format: binding; conditions: 352 bp C, 22° C., pH 7.0, read-out: Dissociation Constant Kd
From the text: as §3, §4, §5, §6, §7

[9] = tested on: Streptococcus pneumoniae ATCC 51422; assay: NCCLS broth microdilution MIC; format: cell-based; conditions: Col. E = S. pneumoniae ATCC 51422 (PRSP)
From the text: as §2

[10] = tested on: S. aureus ATCC 27660; assay: NCCLS broth microdilution MIC; format: cell-based, Staphylococcus aureus; conditions: Col. A = S. aureus ATCC 27660 (MRSA)
From the text: as §2

[11] = target: target sequence AATACT (310 bp fragment, Plasmid B); assay: Quantitative DNase I footprint titration; format: binding; conditions: 310 bp B, 22° C., pH 7.0, read-out: Dissociation Constant Kd
From the text: as §3, §4, §5, §6, §7

[12] = target: target sequence ATTACT (310 bp fragment, Plasmid B); assay: Quantitative DNase I footprint titration; format: binding; conditions: 310 bp B, 22° C., pH 7.0, read-out: Dissociation Constant Kd
From the text: as §3, §4, §5, §6, §7

[13] = target: target sequence ACAATTAAT (352 bp fragment, Plasmid C); assay: Quantitative DNase I footprint titration; format: binding; conditions: 352 bp C, 22° C., pH 7.0, read-out: Dissociation Constant Kd
From the text: as §3, §4, §5, §6, §7

[14] = target: target sequence AGTACT (310 bp fragment, Plasmid B); assay: Quantitative DNase I footprint titration; format: binding; conditions: 310 bp B, 22° C., pH 7.0, read-out: Dissociation Constant Kd
From the text: as §3, §4, §5, §6, §7

SMILES | Survival at 48 hrs [1] [%] | Minimum Inhibitory Concentration (MIC) [2] [µg/mL] | Kd [3] [nM] | Minimum Inhibitory Concentration (MIC) [4] | Minimum Inhibitory Concentration (MIC) [5] | Minimum Inhibitory Concentration (MIC) [6] | Colony Count [7] [log cfu/gram] | Kd [8] [nM] | Minimum Inhibitory Concentration (MIC) [9] | Minimum Inhibitory Concentration (MIC) [10] | Kd [11] [nM] | Kd [12] [nM] | Kd [13] [nM] | Kd [14] [nM] | MIC ([2]; Candida albicans, ATCC38247, read-out: Minimum Inhibitory Concentration (MIC)) [µg/mL] | MIC ([10]; Staphylococcus aureus, read-out: Minimum Inhibitory Concentration (MIC)) [µg/mL]
Cn1cc(NC(=O)c2cc(NC(=O)c3cc(NC(=O)c4sccc4Cl)cn3C)cn2C)cc1C(=O)NCCN1CCOCC1 [Compound 6] | 86 | >32 | 20 | ++ (++ = MIC ≦ 1) | + (+ = MIC ≦ 2) | − (− = MIC > 2) | – | – | – | – | – | – | – | – | – | –
Cn1cc(NC(=O)c2cc(NC(=O)c3cc(NC(=O)c4sc5ccccc5c4Cl)c[nH]3)cn2C)cc1C(=O)NCCN1CCOCC1 [Compound 9] | – | >32 | – | + (+ = MIC ≦ 2) | ++ (++ = MIC ≦ 1) | + (+ = MIC ≦ 2) | 6.17 | 0.1 | ++ (++ = MIC ≦ 1) | ++ (++ = MIC ≦ 1) | – | – | – | – | – | –
Cn1cc(NC(=O)c2cc(NC(=O)c3cc(NC(=O)c4ccc(Cl)cc4F)c[nH]3)cn2C)cc1C(=O)NCCN1CCOCC1 [Compound 10] | – | 8 to 32 | 1 | + (+ = MIC ≦ 2) | − (− = MIC > 2) | – | – | – | − (− = MIC > 2) | + (+ = MIC ≦ 2) | 5 | – | – | – | – | –
Cc1cc(NC(=O)c2cc(NC(=O)c3cc(NC(=O)c4nsc(NCCN5CCCCC5)c4Cl)cn3C)cn2C)sn1 [Compound 13] | – | >32 | 10 | – | – | – | – | – | – | ++ (++ = MIC ≦ 1) | – | 5 | – | – | – | –
Cn1cc(NC(=O)c2cc(NC(=O)c3cc(NC(=O)c4cc5ccccc5cn4)cn3C)cn2C)cc1C(=O)NCCc1cccnc1 [Compound 14] | – | >32 | – | − (− = MIC > 2) | − (− = MIC > 2) | – | – | – | + (+ = MIC ≦ 2) | ++ (++ = MIC ≦ 1) | – | – | 5 | – | – | –
Cn1cc(NC(=O)c2cc3ccccc3cn2)cc1C(=O)Nc1cc(C(=O)Nc2cc(C(=O)NCCN3CCOCC3)n(CCN3CCOCC3)c2)n(C)c1 [Compound 17] | – | >32 | 5 | ++ (++ = MIC ≦ 1) | − (− = MIC > 2) | – | – | – | ++ (++ = MIC ≦ 1) | ++ (++ = MIC ≦ 1) | – | – | – | < 100 | – | –
Cn1cc(NC(=O)c2cc3ccccc3cn2)cc1C(=O)Nc1cc(C(=O)Nc2cc(C(=O)NCCN3CCCCC3)ns2)n(C)c1 [Compound 19] | – | >32 | – | ++ (++ = MIC ≦ 1) | + (+ = MIC ≦ 2) | – | – | – | ++ (++ = MIC ≦ 1) | ++ (++ = MIC ≦ 1) | – | – | 1 | – | – | –
Cn1cc(NC(=O)c2cc(NC(=O)c3cc(NC(=O)c4cc5ccccc5cn4)no3)cn2C)cc1C(=O)NCCN1CCOCC1 [Compound 20] | – | – | 5 | – | – | – | – | – | – | – | – | – | – | 10 | > 32 | ≤ 1
